In patent publication US20250295734A1, “ANTICOAGULANT PROTEINS AND THEIR USE FOR TREATING DISEASES ASSOCIATED WITH THE ACTIVATION OF NEUTROPHILS” (BIOXODES, priority 2018, published 2025):

Test system: human washed platelets
Assay: In vitro platelet aggregation assay
Format: cell-based
Settings: agent alone (TRAP 20 μM, ADP 20 μM or Ir-CPI 500 μg/100 μL); n=1
Method: Blood from healthy human donors, who had not taken anti-platelet agents within the 15 days prior to collection, was collected in citrated tubes and centrifuged for 13 min at 200 g. The platelet-rich plasma was collected and centrifuged for 13 min at 900 g in Tyrode buffer (138 mM NaCl, 2.9 mM KCl, 12 mM NaHCO3, 5.5 mM glucose, 1.8 mM CaCl2 and 0.4 mM MgCl2, pH 7.4) containing 0.2% BSA, apyrase 0.02 U/mL and PGI2 500 nM. Washed platelets were resuspended in the Tyrode/BSA 0.2%/apyrase/PGI2 solution and centrifuged at 900 g for 13 min. Platelets were resuspended in a Tyrode/BSA 0.2% solution at a concentration of 3.10^8 platelets/mL. Platelets were kept at 37° C. for 30 min in a solution containing […]. Next, platelets were incubated at 37° C. under agitation for 5 to 10 minutes in an aggregometer APACT 4004 with ADP (adenosine diphosphate), TRAP (Thrombin Receptor-Activating Peptide) and/or Ir-CPI.
The effect of Ir-CPI on platelet aggregation was assessed in vitro by using isolated human washed platelets (n=1).

Nc1ncnc2c1ncn2[C@@H]1O[C@H](COP(=O)(O)OP(=O)(O)O)[C@@H](O)[C@H]1O [ADP, adenosine diphosphate, reference compound]
Aggregation Latency: 51.8 s | Aggregation Max: 6.9% | Aggregation Slope: 19.4 %/min
